From article PMC9304322, “Targeting retinoic acid receptor alpha-corepressor interaction activates chaperone-mediated autophagy and protects against retinal degeneration” (Nature Communications, 2022)
Several values for one entry are separate records, joined by “and”; a condition that tells them apart may be missing. Equal entries are not always repeated.

How the values were obtained:
NIH3T3 = test: Cell viability after paraquat (CellTiter-Blue); format: cell-based, mouse
CaCo-2 cells = test: Bidirectional permeability assay with CaCo-2 cells; format: in vitro ADME, human; settings: in words
Experimental: In vitro solubility in the following conditions A) HBSS/HEPES 10 mM/BSA 0.1% pH 6 B) HBSS/HEPES 10 mM/BSA 0.1% pH 7.4 C) TRIS/BSA 0.1% PBS (pH 7.4 and at indicated doses were measured by Nephelometry using the NEPHELOstar Galaxy apparatus (BMG Lab Technologies). In vitro stability in human, mouse and rat liver microsomes and permeability using a bidirectional permeability assay with CaCo-2 cells (pH 6.5/7.4) assays were performed with standard methodology and analyzed by LC-MS/MS. at SIMM-SERVIER joint Biopharmacy Laboratory. ADME properties for CA39 and CA77 were predicted by QikProp (Schrödinger, LLC, Releases 2016-2020) software.

rd10 mice [1] = test: rd10 mice, daily i.p. injection, retina histology and biochemistry; format: in vivo, mouse; settings: daily i.p. 40 mg/kg bw, P18 to P25
Experimental: (§1) C57BL/6 J mice wild-type (WT) and homozygous for the Pde6 mutation (rd10 mouse model of retinal degeneration) were obtained from The Jackson Laboratory and experiments were performed at the age indicated in each part of the study. C57BL/6 KFERQ-Dendra mice were generated by back-crossing FVB KFERQ-Dendra mice with wild-type C57BL/6 mice for 8 generations. Both male and female animals were used in this study in equally distribution groups. However, results from both sexes were pooled, because of absence of significant differences in any of the parameters analyzed after statistical analysis with a mixed model of two-way ANOVA sex and treatment as independent variables and the corresponding measure as dependent variable. All animals were housed in a barrier-controlled facility (19–23 °C 30–60% relative humidity; 12 h light/dark cycle) with ad libitum access to standard chow pellets (protein 19 gm%/carbohydrate 67 gm%/fat 4 gm%) and water. For animal administration of CA compounds, a formula containing 30% PEG 400 (Sigma, #8.0745), 65% of 5% glucose solution, 5% Tween 80 (Sigma, #P1754) was used to dissolve them. CA compounds were prepared freshly by adding 5% DMSO and sonicating for 1 h. Treatment of KFERQ-Dendra mice with the CA compounds was done at 4 months of age by i.p. daily injection of 30 mg/kg bw or vehicle for three consecutive days and tissues collected 6 h after the last injection. In the case of rd10 mice, animals were daily injected from P18 to P25 with CA77 (40 mg/kg bw). In the case of intravitreal administration, a single intravitreal injection was applied at P18 with CA77 (40 µM) in DMSO/PBS and the contralateral eye was injected with PBS and DMSO at same concentration. At P26, mice were sacrificed and eyes fixed overnight with 4% PFA (Sigma, #P6148) in PBS at 4 °C for immunofluorescence or retinas dissected and immediately frozen for biochemistry. Distribution of animals in the vehicle or treatment group was done randomly. ICR (CD-1) outbred 3 months old male mice from ENVIGO were used for the pharmacokinetic studies (see pharmacokinetic section for housing and handling details). All animal studies and procedures complied with ethical regulations, were performed in accordance with the European Union guidelines and the ARVO Statement for the Use of Animals in Ophthalmic and Vision Research and were approved by the Institutional Animal Care and Use Committee at the Albert Einstein College of Medicine, the CSIC Bioetica Comite and approved by the Comunidad de Madrid, PROEX232/17.
(§2) 12 μm cryosections and immunofluorescence in retinal sections[10] after orienting retinas with a dorsal mark, so comparisons were performed taking into account the precise retinal area. Primary antibodies used in this study were visual (rod) arrestin, cone arrestin, Opsin R/G, transducin, GFAP, N-CoR1. Sections were visualized by confocal microscopy (TCS SP5; Leica Microsystems).
(§3) For ONL thickness quantification, DAPI images were taken at 40X in a fluorescence microscope Multidimensional system Leica AF6000 LX coupled to DMI600B microscope and Hamamatsu CCD 9100-O2 camera. At least two sections per animal were analyzed, preferably central sections. Eight images per retina equally distributed along the retina were acquired. Three measures were taken per image and ratio ONL/INL quantified with ImageJ tools. Leica LAS-X (3.7.4.23463) was used for image acquisition and ImageJ (v.2.1.0) was used for image processing. For OS length measures, fixed positions common to all pictures were considered and OS length was measured using ImageJ straight line tool.
RNA was extracted from individual retinas or tissue sections (brain, liver). Total RNA from retinas was extracted using TRIzol Reagent (Invitrogen, # 15596-018), and reverse transcription was performed using the High-Capacity cDNA Reverse Transcription Kit (Applied Biosystems, # 4374966) according to the manufacturer’s instructions. […]

rd10 mice [2] = test: rd10 mice, single intravitreal injection, retina histology; format: in vivo, mouse
Experimental: as §1, §2, §3
Eyes were enucleated, put in a plate with cold PBS and an incision was made under the microscope to let the fixative enter into the eye. […]

rd10 mice [3] = settings: mouse, in vivo, ip, 40 mg/kg
[4] = rd10 mice, 7 days after a single intravitreal injection (40 µM) at P18
[5] = rd10 mice, individual values and Mean CA77

Clc1ccc2c(c1)OCC(c1ccc(-c3ccccc3)cc1)=N2 [CA39]
protection against paraquat, compound added after the insult (NIH3T3; 2 μM or 10 μM, compared with AR7): significantly higher protection than AR7 | cell death by paraquat, compound administered before the insult (NIH3T3; 12 h treatment with 2 μM or 10 μM before PQ): reduced cell death

CC(=O)Nc1ccc(C2=Nc3ccc(Cl)cc3OC2)cc1 [CA77]
membrane permeability (CaCo-2 cells): highly membrane permeable | expression levels of NCOR1 (rd10 mice [1]; WT and rd10 mice): did not change the expression levels of NCOR1 | mRNA levels of photoreceptor-specific proteins (rhodopsin) (rd10 mice [1]; rd10 mice): Higher mRNA levels of photoreceptor-specific proteins | outer nuclear layer (ONL) thickness (rd10 mice [1]; rd10 mice): significantly thicker outer nuclear layers | retinal GFAP levels (rd10 mice [1]; rd10 mice): strikingly lower levels of GFAP | retinal L2A levels by immunoblot (rd10 mice [1]; rd10 mice): significantly increasing retinal levels of the limiting CMA component | length of the outer segments of photoreceptors (rd10 mice [1]; rd10 mice, vs vehicle): increased length of the outer segments of photoreceptors | ONL/INL (rd10 mice [2]; Fig. S9c, individual animals): 0.8086 and 0.8292 and 0.9847 | ONL/INL, mean (rd10 mice [2]; Fig. S9c, mean, veh 0.676): 0.8578 | %functional cones (rd10 mice [2]; Fig. S9d, individual animals): 28.972% and 50% and 24.2991% and 28.7037% and 13.3929% and 16.5289% and 21.8182% | %functional cones, mean (rd10 mice [2]; Fig. S9d, mean, veh 10.94): 26.24% | gliosis (rd10 mice [2]; [4]): significatively improved | retinal ONL/INL ratio (rd10 mice [2]; [4]): thicker retinal ONL/INL ratio | Fig. 7a, retinal measurement by eccentricity, eccentricity 1 (rd10 mice [2]; [5]): 0.3526 | Fig. 7a, retinal measurement by eccentricity, eccentricity 2 (rd10 mice [2]; [5]): 0.3984 | Fig. 7a, retinal measurement by eccentricity, eccentricity 3 (rd10 mice [2]; [5]): 0.5851 | Fig. 7a, retinal measurement by eccentricity, eccentricity 4 (rd10 mice [2]; [5]): 0.8477 | Fig. 7a, retinal measurement by eccentricity, eccentricity -1 (rd10 mice [2]; [5]): 0.3423 | Fig. 7a, retinal measurement by eccentricity, eccentricity -2 (rd10 mice [2]; [5]): 0.3489 | Fig. 7a, retinal measurement by eccentricity, eccentricity -3 (rd10 mice [2]; [5]): 0.5902 | ERG amplitude of b-mixed, b-phot and flicker waves (rd10 mice [3]): significantly higher amplitude
